Activity calls are given as the source filed them. The rule behind the calls is not given here.
Tests used:
[1] = test system: MCF7; assay: Upregulation of P-gp expression in human MCF7 cells at 25 to 100 nM incubated for 24 hrs by Western blot analysis; type: functional, cell-based; conditions: dose 25-100 nM
[2] = Cytotoxicity against human BEAS-2B cells assessed as inhibition of cell growth incubated for 48 hrs by MTT assay; type: toxicity, cell-based
[3] = Selectivity index, ratio of IC50 for antiproliferative activity against human A549 cells assessed as inhibition of cell growth to IC50 for antiproliferative activity against human A549/Taxol cells assessed as inhibition of cell growth; type: functional
[4] = test system: NCI/ADR-RES; assay: Downregulation of Bcl-2 expression in human MCF7ADR cells incubated for 24 hrs by Western blot analysis; type: functional, cell-based; conditions: dose 25-50 nM
[5] = test system: NCI/ADR-RES; assay: Induction of apoptosis in human MCF7ADR cells incubated for 24 hrs by Annexin V-FITC/PI staining based flow cytometry analysis; type: functional, cell-based; conditions: dose 25-50 nM
[6] = test system: NCI/ADR-RES; assay: Induction of NO release in human MCF7ADR cells by DAF-FM DA probe based analysis; type: functional, cell-based; conditions: dose 50-100 nM
[7] = test system: NCI/ADR-RES; assay: Antitumor activity against human MCF7ADR cells xenografted in BALB/c mouse at 1.25 to 5 mg/kg, ip measured for 21 days; type: functional, organism-based; conditions: dose 1.25-5 mg/kg, time 21.0 day
[8] = Toxicity in BALB/c mouse xenografted with human MCF7ADR cells assessed as kidney damage at 1.25 to 5 mg/kg, ip measured for 21 days by H and E staining based analysis; type: organism-based; conditions: in vivo, 504 h, dose 1.25-5 mg/kg, time 21 day
[9] = test system: A549; assay: Upregulation of P-gp expression in human A549 cells at 1 to 4 uM incubated for 24 hrs by Western blot analysis; type: functional, cell-based; conditions: dose 1-4 µM
[10] = test system: A549; assay: Antiproliferative activity against human A549 cells assessed as inhibition of cell growth incubated for 48 hrs by MTT assay; type: functional, cell-based; conditions: A549, 48 h
[11] = test system: Lysosomal membrane; assay: Induction of lysosomal membrane permeabilization in human MCF7ADR cells assessed as increase fluorescence intensity incubated for 6 hrs by LysoTracker red probe based laser scanning confocal microscopic analysis; type: subcellular; conditions: dose 50-100 nM
[12] = test system: NCI/ADR-RES; assay: Antitumor activity against human MCF7ADR cells xenografted in BALB/c mouse at 1.25 mg/kg, ip measured for 21 days; type: functional, organism-based; conditions: time 21.0 day
[13] = test system: NCI/ADR-RES; assay: Induction of apoptosis in human MCF7ADR cells at 25 to 50 nM incubated for 24 hrs by Annexin V-FITC/PI staining based flow cytometry analysis; type: functional; conditions: dose 25-50 nM
[14] = test system: NCI/ADR-RES; assay: Induction of NO release in human MCF7ADR cells at 100 uM measured for 5 hrs by Griess reagent assay; type: functional, cell-based
[15] = Toxicity in BALB/c mouse xenografted with human MCF7ADR cells assessed as liver damage at 1.25 to 5 mg/kg, ip measured for 21 days by H and E staining based analysis; type: organism-based; conditions: in vivo, 504 h, dose 1.25-5 mg/kg, time 21 day
[16] = test system: NCI/ADR-RES; assay: Upregulation of P-gp expression in human MCF-7/ADR cells at 25 to 100 nM incubated for 24 hrs by Western blot analysis; type: functional, cell-based; conditions: dose 25-100 nM
[17] = Toxicity in BALB/c mouse xenografted with human MCF7ADR cells assessed as change in body weight at 1.25 to 5 mg/kg, ip measured for 21 days; type: organism-based; conditions: in vivo, 504 h, dose 1.25-5 mg/kg, time 21 day
[18] = Induction of NO release in lysosome of human MCF-7/ADR cells assessed as increase in green fluorescence intensity at 100 nM by Lyso-NO probe based laser scanning confocal microscopic analysis; type: subcellular; conditions: 0.1 µM, time 1-3 hrs
[19] = Toxicity in BALB/c mouse xenografted with human MCF7ADR cells assessed as spleen damage at 1.25 to 5 mg/kg, ip measured for 21 days by H and E staining based analysis; type: organism-based; conditions: in vivo, 504 h, dose 1.25-5 mg/kg, time 21 day
[20] = test system: NCI/ADR-RES; assay: Induction of cell cycle arrest in human MCF7ADR cells assessed as accumulation of cells at G2/M phase at 40 nM incubated for 24 hrs by flow cytometry analysis (reference value: 11.2%); type: functional
[21] = test system: A549/TR; assay: Upregulation of P-gp expression in human A549/Taxol cells at 1 to 4 uM incubated for 24 hrs by Western blot analysis; type: functional, cell-based; conditions: dose 1-4 µM
[22] = test system: NCI/ADR-RES; assay: Antiproliferative activity against human MCF7ADR cells assessed as inhibition of cell growth incubated for 48 hrs by MTT assay; type: functional, cell-based
[23] = test system: NCI/ADR-RES; assay: Antitumor activity against human MCF7ADR cells xenografted in ip dosed BALB/c mouse assessed as decrease in ki67 expression measured for 21 days; type: functional, organism-based; conditions: dose 1.25-5 mg/kg, time 21.0 day
[24] = test system: MCF7; assay: Antiproliferative activity against human MCF7 cells assessed as inhibition of cell growth incubated for 48 hrs by MTT assay; type: functional, cell-based; conditions: MCF7, 48 h
[25] = test system: NCI/ADR-RES; assay: Induction of ROS production in human MCF-7/ADR cells in presence of NAC; type: functional, cell-based
[26] = Selectivity index, ratio of IC50 for antiproliferative activity against human MCF7 cells assessed as inhibition of cell growth to IC50 for antiproliferative activity against human MCF7ADR cells assessed as inhibition of cell growth; type: functional
[27] = test system: NCI/ADR-RES; assay: Induction of apoptosis in human MCF7ADR cells assessed as increase in PARP1 cleavage at 25 to 50 nM incubated for 24 hrs by Western blot analysis; type: functional, cell-based; conditions: dose 25-50 nM
[28] = Induction of NO release in lysosome of human A549/Taxol cells assessed as increase in green fluorescence intensity at 100 nM by Lyso-NO probe based laser scanning confocal microscopic analysis; type: subcellular; conditions: 0.1 µM, time 1-3 hrs
[29] = test system: NCI/ADR-RES; assay: Induction of cell cycle arrest in human MCF7ADR cells assessed as accumulation of cells at G2/M phase at 30 nM incubated for 24 hrs by flow cytometry analysis (reference value: 11.2%); type: functional
[30] = molecular target: T1, ATP-dependent translocase ABCB1 (Homo sapiens, UniProt P08183); assay: Inhibition of P-gp-mediated rhodamine-123 efflux in human MCF7 cells assessed as increase in Rh123 accumulation incubated for 4 hrs by flow cytometry analysis; type: cell-based; conditions: mcf7, 4 h, at 10 to 50 nM, dose 10-50 nM
[31] = test system: NCI/ADR-RES; assay: Upregulation of Bax expression in human MCF7ADR cells incubated for 24 hrs by Western blot analysis; type: functional, cell-based; conditions: dose 25-50 nM
[32] = test system: NCI/ADR-RES; assay: Induction of NO release in human MCF7ADR cells at 100 uM by Griess reagent assay; type: functional, cell-based; conditions: time <= 10.0 hrs
[33] = Drug localization in lysosome of human MCF-7/ADR cells assessed as emission of yellow fluorescence incubated for 1 hr by DAPI staining based laser scanning confocal microscopic analysis; type: ADME, subcellular
[34] = test system: HepG2; assay: Antiproliferative activity against human HepG2 cells assessed as inhibition of cell growth incubated for 48 hrs by MTT assay; type: functional, cell-based; conditions: HepG2, 48 h
[35] = Cytotoxicity against human MCF-10A cells assessed as inhibition of cell growth incubated for 48 hrs by MTT assay; type: toxicity, cell-based
[36] = test system: NCI/ADR-RES; assay: Upregulation of m-CTSD expression in human MCF7ADR cells at 50 to 100 nM incubated for 24 hrs by Western blot analysis; type: functional, cell-based; conditions: dose 50-100 nM
[37] = test system: A549/TR; assay: Antiproliferative activity against human A549/Taxol cells assessed as inhibition of cell growth incubated for 48 hrs by MTT assay; type: functional, cell-based
[38] = test system: NCI/ADR-RES; assay: Upregulation of Caspase-3 expression in human MCF7ADR cells at 25 to 50 nM incubated for 24 hrs by Western blot analysis; type: functional, cell-based; conditions: dose 25-50 nM
[39] = test system: NCI/ADR-RES; assay: Antitumor activity against human MCF7ADR cells xenografted in BALB/c mouse assessed as inhibition of tumor volume at 5 mg/kg, ip measured for 21 days; type: functional; conditions: 504 h, time 21 day
[40] = test system: NCI/ADR-RES; assay: Inhibition of colony formation in human MCF7ADR cells assessed as reduction in colony growth at 40 nM incubated for 12 days in presence of hemoglobin by crystal violet staining based assay; type: functional, cell-based; conditions: time 12.0 day
[41] = test system: NCI/ADR-RES; assay: Inhibition of colony formation in human MCF7ADR cells assessed as reduction in colony growth at 40 to 50 nM incubated for 12 days by crystal violet staining based assay; type: functional, cell-based; conditions: dose 40-50 nM, time 12.0 day
[42] = test system: NCI/ADR-RES; assay: Induction of cell cycle arrest in human MCF7ADR cells assessed as accumulation of cells at G2/M phase at 20 nM incubated for 24 hrs by flow cytometry analysis (reference value: 11.2%); type: functional
[43] = test system: PC-3; assay: Antiproliferative activity against human PC-3 cells assessed as inhibition of cell growth incubated for 48 hrs by MTT assay; type: functional, cell-based; conditions: PC-3, 48 h
[44] = test system: NCI/ADR-RES; assay: Induction of ROS production in human MCF-7/ADR cells in presence of elacridar; type: functional, cell-based
[45] = Toxicity in BALB/c mouse xenografted with human MCF7ADR cells assessed as heart damage at 1.25 to 5 mg/kg, ip measured for 21 days by H and E staining based analysis; type: organism-based; conditions: in vivo, 504 h, dose 1.25-5 mg/kg, time 21 day
[46] = molecular target: T1, ATP-dependent translocase ABCB1; assay: Inhibition of P-gp-mediated rhodamine-123 efflux in human MCF-7/ADR cells assessed as increase in Rh123 accumulation incubated for 4 hrs by flow cytometry analysis; type: cell-based; conditions: at 10 to 50 nM, dose 10-50 nM
[47] = Toxicity in BALB/c mouse xenografted with human MCF7ADR cells assessed as lung damage at 1.25 to 5 mg/kg, ip measured for 21 days by H and E staining based analysis; type: organism-based; conditions: in vivo, 504 h, dose 1.25-5 mg/kg, time 21 day

T1 sequence (P08183 whole entry): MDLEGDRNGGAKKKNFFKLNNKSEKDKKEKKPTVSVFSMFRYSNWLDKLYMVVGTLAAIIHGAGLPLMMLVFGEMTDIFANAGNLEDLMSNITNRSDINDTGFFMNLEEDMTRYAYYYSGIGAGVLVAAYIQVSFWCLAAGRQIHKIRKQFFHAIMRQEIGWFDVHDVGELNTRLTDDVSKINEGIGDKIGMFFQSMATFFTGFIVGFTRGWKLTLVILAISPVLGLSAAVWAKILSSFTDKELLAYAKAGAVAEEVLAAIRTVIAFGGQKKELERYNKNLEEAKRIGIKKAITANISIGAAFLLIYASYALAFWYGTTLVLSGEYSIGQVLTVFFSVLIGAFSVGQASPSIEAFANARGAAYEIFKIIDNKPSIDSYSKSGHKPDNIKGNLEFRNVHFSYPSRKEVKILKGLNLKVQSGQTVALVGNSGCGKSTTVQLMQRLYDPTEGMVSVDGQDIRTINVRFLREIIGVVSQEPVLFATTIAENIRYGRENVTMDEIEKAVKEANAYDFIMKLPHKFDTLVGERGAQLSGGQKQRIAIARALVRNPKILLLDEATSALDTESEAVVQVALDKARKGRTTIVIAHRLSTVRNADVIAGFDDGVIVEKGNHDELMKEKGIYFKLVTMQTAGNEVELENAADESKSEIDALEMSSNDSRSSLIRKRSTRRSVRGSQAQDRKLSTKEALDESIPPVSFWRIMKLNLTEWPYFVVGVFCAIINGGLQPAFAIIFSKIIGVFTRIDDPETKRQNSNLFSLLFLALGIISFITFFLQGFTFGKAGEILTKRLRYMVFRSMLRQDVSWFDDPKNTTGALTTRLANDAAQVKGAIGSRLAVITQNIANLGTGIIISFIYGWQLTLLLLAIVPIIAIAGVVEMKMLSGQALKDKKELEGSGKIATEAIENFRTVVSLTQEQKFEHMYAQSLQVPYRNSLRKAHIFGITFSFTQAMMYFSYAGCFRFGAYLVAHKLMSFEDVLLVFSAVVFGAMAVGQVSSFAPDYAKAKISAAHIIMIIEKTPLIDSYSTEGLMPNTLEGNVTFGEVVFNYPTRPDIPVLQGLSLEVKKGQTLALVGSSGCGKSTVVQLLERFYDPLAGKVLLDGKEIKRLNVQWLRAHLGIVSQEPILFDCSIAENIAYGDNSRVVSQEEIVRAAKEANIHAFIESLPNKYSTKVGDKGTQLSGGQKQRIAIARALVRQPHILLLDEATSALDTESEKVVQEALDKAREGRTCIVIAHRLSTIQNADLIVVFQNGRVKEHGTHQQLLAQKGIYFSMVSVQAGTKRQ

- IC50 [10]: 23.8 µM
- Activity [11]: Dose-dependent-effect
- Activity [18]: Time-dependent-effect
- IC50 [24]: 21.2 µM
- Activity [28]: Time-dependent-effect
- inhibition (INH) [30]: Dose-dependent-effect
- Drug uptake [33]: Active
- IC50 [34]: 6.57 µM
- IC50 [37]: 1.43 µM
- IC50 [43]: 3.36 µM
- inhibition (INH) [46]: Dose-dependent-effect
SMILES: O=S(=O)(c1ccccc1)c1c(OCCCOc2cccc3c2Oc2cccc(c2)CCc2ccc(O)c(c2)Oc2ccc(cc2)CC3)no[n+]1[O-]
- Activity [1]: inactive
- IC50 at 48 h [2]: 14.8 µM
- Ratio IC50 [3]: 17
- Activity [4]: Dose-dependent-effect
- Activity [5]: Dose-dependent-effect
- Activity [6]: Dose-dependent-effect
- Activity [7]: Active; Displayed Strong Antitumor Activity Than Ptx
- Activity [8]: Non-toxic
- Activity [9]: Active
- Activity [12]: Active
- Activity [13]: 8.6%
- Activity [14]: Active
- Activity [15]: Non-toxic
- Activity [16]: Active
- Activity [17]: Non-toxic
- Activity [19]: Non-toxic
- Activity [20]: 25.3%
- Activity [21]: Active
- IC50 [22]: 0.024 µM
- Activity [23]: Dose-dependent-effect
- Activity [25]: Active
- Ratio IC50 [26]: 883
- Activity [27]: Active
- Activity [29]: 20.3%
- Activity [31]: Dose-dependent-effect
- Activity [32]: Time-dependent-effect
- IC50 at 48 h [35]: 14.3 µM
- Activity [36]: Active
- Activity [38]: Active
- inhibition in vivo at 5 mg/kg [39]: 62.7%
- inhibition [40]: Active
- inhibition [41]: Active
- Activity [42]: 18.1%
- Activity [44]: Active
- Activity [45]: Non-toxic
- Activity [47]: Non-toxic

Reference: ChEMBL document CHEMBL6103624, “Design, Synthesis, and Biological Evaluation of Marchantin C-NO Donor Hybrids for Overcoming Pgp-Mediated Drug Resistance by Targeting Lysosome” (J Med Chem, 2025)
